Laboratory results published in patent US11780839B2, “Compounds for treating Huntington's disease” (PTC THERAPEUTICS, INC., priority 2018, dated 2023).

system: Endogenous Huntingtin Protein; test: Endogenous Huntingtin Protein Assay (ELISA-based Meso Scale Discovery electrochemiluminescence); format: cell-based; conditions: MSD electrochemiluminescence, Table 1
Summary of the method: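 Sandwich MSD electrochemiluminescence immunoassay. Capture used MW1 (expanded polyglutamine) or MAB2166 antibody coated at 1 μg/mL overnight at 4 °C. Samples were bound overnight at 4 °C, then a rabbit monoclonal detection antibody and SULFO-TAG anti-rabbit, each at 0.25 μg/mL, were applied for 1 h at room temperature.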

Q: Which IC50 does the source give for `Cc1ncn(-c2ccc(-c3cnc(N(C)C4CC(C)(C)NC(C)(C)C4)nn3)c(O)c2)n1` [Cpd 51, 2-{3-[methyl(2,2,6,6-tetramethylpiperidin-4-yl)amino]-1,2,4-triazin-6-yl}-5-(3-methyl-1H-1,2,4-triazol-1-yl)phenol] here?
A: Its IC50 is > 500 nM.

Q: How did the IC50 turn out when `Oc1cc(-c2cn[nH]c2)ccc1-c1cnc(N2CC3(CCCNC3)C2)nn1` [Cpd 109, 2-[3-(2,6-diazaspiro[3.5]nonan-2-yl)-1,2,4-triazin-6-yl]-5-(1H-pyrazol-4-yl)phenol] was run?
A: The IC50 was 100 to 500 nM.

Q: Which IC50 does the source give for `CN(c1cnc(-c2ccc(-c3ccc4c(cnn4C)n3)cc2O)nn1)C1CC(C)(C)NC(C)(C)C1` [Cpd 394, 5-(1-methyl-1H-pyrazolo[4,3-b]pyridin-5-yl)-2-{6-[methyl(2,2,6,6-tetramethylpiperidin-4-yl)amino]-1,2,4-triazin-3-yl}phenol] here?
A: The IC50 was ≤ 100 nM.

Q: How did the IC50 turn out when `CC1(C)CC(Nc2ncc(-c3ccc(-c4cncnn4)cc3O)nn2)CC(C)(C)N1` [Cpd 305, 2-{3-[(2,2,6,6-tetramethylpiperidin-4-yl)amino]-1,2,4-triazin-6-yl}-5-(1,2,4-triazin-6-yl)phenol] was run?
A: Its IC50 is ≤ 100 nM.

Q: Which IC50 does the source give for `C[C@H](CF)N[C@H]1CCN(c2ncc(-c3ccc(-c4cn[nH]c4)cc3O)nn2)C1` [Cpd 329, 2-{3-[(3S)-3-{[(2R)-1-fluoropropan-2-yl]amino}pyrrolidin-l-yl]-1,2,4-triazin-6-yl}-5-(1H-pyrazol-4-yl)phenol] here?
A: The IC50 was 100 to 500 nM.

Q: With `Oc1cc(-c2cn[nH]c2)ccc1-c1cnc(N2CCC3(CNCCO3)C2)nn1` (stereo not shown) [Cpd 353, 2-[3-(6-oxa-2,9-diazaspiro[4.5]decan-2-yl)-1,2,4-triazin-6-yl]-5-(1H-pyrazol-4-yl)phenol] as the compound, how does the IC50 read?
A: Its IC50 is 1000 to 3000 nM.

Q: For `CN(c1ncc(-c2ccc(-n3cncn3)cc2O)nn1)C1CC(C)(C)NC(C)(C)C1` [Cpd 79, 2-{3-[methyl(2,2,6,6-tetramethylpiperidin-4-yl)amino]-1,2,4-triazin-6-yl}-5-(1H-1,2,4-triazol-1-yl)phenol], which IC50 is on record?
A: The IC50 was ≤ 100 nM.

Q: Which IC50 does the source give for `CN(c1ncc(-c2ccc(-c3nccs3)cc2O)nn1)C1CC(C)(C)NC(C)(C)C1` [Cpd 58, 2-{3-[methyl(2,2,6,6-tetramethylpiperidin-4-yl)amino]-1,2,4-triazin-6-yl}-5-(1,3-thiazol-2-yl)phenol] here?
A: Its IC50 is ≤ 100 nM.

Q: Which IC50 does the source give for `Oc1cc(-c2cn[nH]c2)ccc1-c1cnc(N2CC[C@H]3NCC[C@@H]32)nn1` [Cpd 332, 2-{3-[(3aR,6aS)-hexahydropyrrolo[3,2-b]pyrrol-1(2H)-yl]-1,2,4-triazin-6-yl}-5-(1H-pyrazol-4-yl)phenol] here?
A: The IC50 was ≤ 100 nM.

Q: For `CC1CC(NC(C)(C)C)CN1c1ncc(-c2ccc(-c3cn[nH]c3)cc2O)nn1` (stereo not shown) [Cpd 171, 2-{3-[4-(tert-butylamino)-2-methylpyrrolidin-1-yl]-1,2,4-triazin-6-yl}-5-(1H-pyrazol-4-yl)phenol], which IC50 is on record?
A: The IC50 was ≤ 100 nM.

Q: `CC(C)NC1CCN(c2ncc(-c3ccc(-c4cn[nH]c4)cc3O)nn2)C1` (stereo not shown) [Cpd 148, 2-(3-{3-[(propan-2-yl)amino]pyrrolidin-1-yl}-1,2,4-triazin-6-yl)-5-(1H-pyrazol-4-yl)phenol] was tested. Which IC50 did it give?
A: The IC50 was ≤ 100 nM.

Q: `CC(C)(CF)NC1CCN(c2ncc(-c3ccc(-c4cn[nH]c4)cc3O)nn2)C1` (stereo not shown) [Cpd 316, 2-(3-{3-[(1-fluoro-2-methylpropan-2-yl)amino]pyrrolidin-1-yl}-1,2,4-triazin-6-yl)-5-(1H-pyrazol-4-yl)phenol] was tested. Which IC50 did it give?
A: Its IC50 is ≤ 100 nM.

Q: With `CN1CCC2CN(c3ncc(-c4ccc(-c5cn[nH]c5)cc4O)nn3)CC2C1` (stereo not shown) [Cpd 166, 2-[3-(5-methyloctahydro-2H-pyrrolo[3,4-c]pyridin-2-yl)-1,2,4-triazin-6-yl]-5-(1H-pyrazol-4-yl)phenol] as the compound, how does the IC50 read?
A: The IC50 was ≤ 100 nM.

Q: With `CN(c1ncc(-c2ccc(-c3cc(CO)ncn3)cc2O)nn1)C1CC(C)(C)NC(C)(C)C1` [Cpd 179, 5-[6-(hydroxymethyl)pyrimidin-4-yl]-2-{3-[methyl(2,2,6,6-tetramethylpiperidin-4-yl)amino]-1,2,4-triazin-6-yl}phenol] as the compound, how does the IC50 read?
A: The IC50 was ≤ 100 nM.

Q: Which IC50 does the source give for `Cn1ncc2cc(-c3ccc(-c4cnc(NC5CC(C)(C)NC(C)(C)C5)nn4)c(O)c3)cnc21` [Cpd 321, 5-(1-methyl-1H-pyrazolo[3,4-b]pyridin-5-yl)-2-{3-[(2,2,6,6-tetramethylpiperidin-4-yl)amino]-1,2,4-triazin-6-yl}phenol] here?
A: Its IC50 is ≤ 100 nM.

Q: `Oc1cc(-c2cn[nH]c2)ccc1-c1cnc(N2CCC(NC3C4CC5CC(C4)CC3C5)C2)nn1` (stereo not shown) [Cpd 159, 2-(3-{3-[(adamantan-2-yl)amino]pyrrolidin-1-yl}-1,2,4-triazin-6-yl)-5-(1H-pyrazol-4-yl)phenol] was tested. Which IC50 did it give?
A: The IC50 was 1000 to 3000 nM.

Q: For `CN(c1ncc(-c2ccc(-c3n[nH]cc3F)cc2O)nn1)C1CC(C)(C)NC(C)(C)C1` [Cpd 156, 5-(4-fluoro-1H-pyrazol-3-yl)-2-{3-[methyl(2,2,6,6-tetramethylpiperidin-4-yl)amino]-1,2,4-triazin-6-yl}phenol], which IC50 is on record?
A: Its IC50 is ≤ 100 nM.

Q: `CN(c1ncc(-c2ccc(-c3ncn(C)n3)cc2O)nn1)C1CC(C)(C)NC(C)(C)C1` [Cpd 62, 2-{3-[methyl(2,2,6,6-tetramethylpiperidin-4-yl)amino]-1,2,4-triazin-6-yl}-5-(1-methyl-1H-1,2,4-triazol-3-yl)phenol] was tested. Which IC50 did it give?
A: Its IC50 is 100 to 500 nM.

Q: How did the IC50 turn out when `CC1(C)CC(Nc2ncc(-c3ccc(-c4c[nH]nc4F)cc3O)nn2)CC(C)(C)N1` [Cpd 73, 5-(3-fluoro-1H-pyrazol-4-yl)-2-{3-[(2,2,6,6-tetramethylpiperidin-4-yl)amino]-1,2,4-triazin-6-yl}phenol] was run?
A: Its IC50 is ≤ 100 nM.

Q: How did the IC50 turn out when `CC(C)NC1CCN(c2ncc(-c3ccc(-c4ncns4)cc3O)nn2)C1` (stereo not shown) [Cpd 237, 2-(3-{3-[(propan-2-yl)amino]pyrrolidin-1-yl}-1,2,4-triazin-6-yl)-5-(1,2,4-thiadiazol-5-yl)phenol] was run?
A: Its IC50 is 100 to 500 nM.

Q: With `CN(c1ncc(-c2ccc(-n3cc(C#N)cn3)cc2O)nn1)C1CC(C)(C)NC(C)(C)C1` [Cpd 135, 1-(3-hydroxy-4-{3-[methyl(2,2,6,6-tetramethylpiperidin-4-yl)amino]-1,2,4-triazin-6-yl}phenyl)-1H-pyrazole-4-carbonitrile] as the compound, how does the IC50 read?
A: Its IC50 is 100 to 500 nM.

Q: With `CC(C)N[C@H]1CCN(c2ncc(-c3ccc(-c4cn[nH]c4)cc3O)nn2)C1` [Cpd 347, 2-(3-{(3S)-3-[(propan-2-yl)amino]pyrrolidin-1-yl}-1,2,4-triazin-6-yl)-5-(1H-pyrazol-4-yl)phenol] as the compound, how does the IC50 read?
A: The IC50 was ≤ 100 nM.

Q: Which IC50 does the source give for `CN(c1cnc(-c2ccc(-c3ccccn3)cc2O)nn1)C1CC(C)(C)NC(C)(C)C1` [Cpd 393, 2-{6-[methyl(2,2,6,6-tetramethylpiperidin-4-yl)amino]-1,2,4-triazin-3-yl}-5-(pyridin-2-yl)phenol] here?
A: Its IC50 is ≤ 100 nM.

Q: How did the IC50 turn out when `COc1cnc(-c2ccc(-c3cnc(N(C)C4CC(C)(C)NC(C)(C)C4)nn3)c(O)c2)nn1` [Cpd 144, 5-(6-methoxy-1,2,4-triazin-3-yl)-2-{3-[methyl(2,2,6,6-tetramethylpiperidin-4-yl)amino]-1,2,4-triazin-6-yl}phenol] was run?
A: Its IC50 is ≤ 100 nM.

Q: How did the IC50 turn out when `CN1CCC2(CC1)CN(c1ncc(-c3ccc(-c4cnn(C)n4)cc3O)nn1)C2` [Cpd 242, 2-[3-(7-methyl-2,7-diazaspiro[3.5]nonan-2-yl)-1,2,4-triazin-6-yl]-5-(2-methyl-2H-1,2,3-triazol-4-yl)phenol] was run?
A: Its IC50 is ≤ 100 nM.

Q: `CN(c1ncc(-c2ccc(-n3cnc(F)c3)cc2O)nn1)C1CC(C)(C)NC(C)(C)C1` [Cpd 50, 5-(4-fluoro-1H-imidazol-1-yl)-2-{3-[methyl(2,2,6,6-tetramethylpiperidin-4-yl)amino]-1,2,4-triazin-6-yl}phenol] was tested. Which IC50 did it give?
A: The IC50 was ≤ 100 nM.

Q: How did the IC50 turn out when `CC(C)NC1CCN(c2ncc(-c3ccc(-c4cnn(C)n4)cc3O)nn2)C1` (stereo not shown) [Cpd 236, 5-(2-methyl-2H-1,2,3-triazol-4-yl)-2-(3-{3-[(propan-2-yl)amino]pyrrolidin-1-yl}-1,2,4-triazin-6-yl)phenol] was run?
A: The IC50 was ≤ 100 nM.

Q: `CC(C)NC1CCN(c2ncc(-c3ccc(-c4ccn(C)n4)cc3O)nn2)C1` (stereo not shown) [Cpd 213, 5-(1-methyl-1H-pyrazol-3-yl)-2-(3-{3-[(propan-2-yl)amino]pyrrolidin-1-yl}-1,2,4-triazin-6-yl)phenol] was tested. Which IC50 did it give?
A: Its IC50 is 1000 to 3000 nM.

Q: How did the IC50 turn out when `CC(C)NC1CCN(c2ncc(-c3ccc(-c4cn[nH]c4F)cc3O)nn2)C1` (stereo not shown) [Cpd 235, 5-(5-fluoro-1H-pyrazol-4-yl)-2-(3-{3-[(propan-2-yl)amino]pyrrolidin-1-yl}-1,2,4-triazin-6-yl)phenol] was run?
A: The IC50 was ≤ 100 nM.

Q: With `CN(c1ncc(-c2ccc(-c3c[nH]nc3Cl)cc2O)nn1)C1CC(C)(C)NC(C)(C)C1` [Cpd 57, 5-(3-chloro-1H-pyrazol-4-yl)-2-{3-[methyl(2,2,6,6-tetramethylpiperidin-4-yl)amino]-1,2,4-triazin-6-yl}phenol] as the compound, how does the IC50 read?
A: The IC50 was ≤ 100 nM.

Q: How did the IC50 turn out when `Cn1nnc2nc(-c3ccc(-c4cnc(N5CCC(NC(C)(C)C)C5)nn4)c(O)c3)ccc21` (stereo not shown) [Cpd 215, 2-{3-[3-(tert-butylamino)pyrrolidin1-yl]-1,2,4-triazin-6-yl}-5-(1-methyl-1H-[1,2,3]triazolo[4,5-b]pyridin-5-yl)phenol] was run?
A: Its IC50 is 100 to 500 nM.

Q: Which IC50 does the source give for `CN(c1ncc(-c2ccc(-c3ccncc3)cc2O)nn1)C1CC(C)(C)NC(C)(C)C1` [Cpd 8, 2-{3-[methyl(2,2,6,6-tetramethylpiperidin-4-yl)amino]-1,2,4-triazin-6-yl}-5-(pyridin-4-yl)phenol] here?
A: The IC50 was ≤ 100 nM.

Q: How did the IC50 turn out when `CN(C)C1CCN(c2ncc(-c3ccc(-c4cn[nH]c4)cc3O)nn2)C1` (stereo not shown) [Cpd 318, 2-{3-[3-(dimethylamino)pyrrolidin-1-yl]-1,2,4-triazin-6-yl}-5-(1H-pyrazol-4-yl)phenol] was run?
A: Its IC50 is 100 to 500 nM.

Q: Which IC50 does the source give for “2-{3-{[(2S)-2-aminopropyl](methyl)amino}-1,2,4-triazin-6-yl)-5-(1H-pyrazol-4-yl)phenol [Cpd 190]” here?
A: Its IC50 is ≤ 100 nM.

Q: `Cn1ccc(-c2ccc(-c3cnc(N4CCC(NC(C)(C)C)C4)nn3)c(O)c2)cc1=O` (stereo not shown) [Cpd 214, 4-(4-{3-[3-(tert-butylamino)pyrrolidin-1-yl]-1,2,4-triazin-6-yl}-3-hydroxyphenyl)-1-methylpyridin-2(1H)-one] was tested. Which IC50 did it give?
A: The IC50 was ≤ 100 nM.

Q: With `Oc1cc(-c2cn[nH]c2)ccc1-c1cnc(N2CCC(C3CCCN3)C2)nn1` (stereo not shown) [Cpd 387, 2-[3-([2,3’-bipyrrolidin]-l’-yl)-1,2,4-triazin-6-yl]-5-(1H-pyrazol-4-yl)phenol] as the compound, how does the IC50 read?
A: The IC50 was ≤ 100 nM.

Q: How did the IC50 turn out when `CC(C)NC1CCN(c2ncc(-c3ccc(-c4ccc5nccn5n4)cc3O)nn2)C1` (stereo not shown) [Cpd 294] was run?
A: The IC50 was ≤ 100 nM.
